The source made the active and inactive calls. No cut-off for these calls is given here.
Tests used:
[1] = target: Hepatocyte growth factor receptor (Homo sapiens) (UniProt P08581); test: Inhibition of MET (unknown origin) at 1 uM
[2] = target: T1, Receptor-type tyrosine-protein kinase FLT3 (Homo sapiens, UniProt P36888); test: biochemical; format: cell-based, Sf9
T1 sequence (P36888 whole entry): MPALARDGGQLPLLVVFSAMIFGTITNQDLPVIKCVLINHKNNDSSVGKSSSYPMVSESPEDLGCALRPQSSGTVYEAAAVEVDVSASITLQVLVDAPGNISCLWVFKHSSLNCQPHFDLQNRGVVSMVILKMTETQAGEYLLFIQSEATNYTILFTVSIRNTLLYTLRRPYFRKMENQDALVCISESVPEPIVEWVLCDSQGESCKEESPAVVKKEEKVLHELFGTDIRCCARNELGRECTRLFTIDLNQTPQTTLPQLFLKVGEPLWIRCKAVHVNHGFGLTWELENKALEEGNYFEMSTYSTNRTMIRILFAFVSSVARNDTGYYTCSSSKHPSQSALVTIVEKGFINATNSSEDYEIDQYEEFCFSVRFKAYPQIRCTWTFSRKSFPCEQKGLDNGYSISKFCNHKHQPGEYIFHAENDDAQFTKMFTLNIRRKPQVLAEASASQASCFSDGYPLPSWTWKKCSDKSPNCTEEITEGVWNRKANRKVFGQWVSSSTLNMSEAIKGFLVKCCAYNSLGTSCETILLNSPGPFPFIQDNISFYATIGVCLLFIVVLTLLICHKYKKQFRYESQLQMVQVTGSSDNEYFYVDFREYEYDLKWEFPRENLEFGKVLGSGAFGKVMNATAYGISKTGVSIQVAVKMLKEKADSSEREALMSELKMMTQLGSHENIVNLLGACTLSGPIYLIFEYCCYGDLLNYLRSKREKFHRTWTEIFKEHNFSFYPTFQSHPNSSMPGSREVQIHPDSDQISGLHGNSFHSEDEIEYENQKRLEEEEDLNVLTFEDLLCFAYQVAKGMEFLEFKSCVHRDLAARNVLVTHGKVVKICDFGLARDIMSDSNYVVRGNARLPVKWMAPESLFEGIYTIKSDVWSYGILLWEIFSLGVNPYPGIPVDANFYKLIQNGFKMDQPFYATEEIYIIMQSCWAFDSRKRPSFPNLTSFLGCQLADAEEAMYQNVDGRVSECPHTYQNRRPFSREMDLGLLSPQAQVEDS
Description: Inhibition of wild type GST tagged FLT3 kinase (567 to 993) (unknown origin) transfected in insect sf9 cells after 4 hrs by wallac counting analysis

[3] = target: T2, Vascular endothelial growth factor receptor 2 (Homo sapiens, UniProt P35968); test: Inhibition of KDR (unknown origin) at 1 uM by kinase Glo assay
[4] = target: Serine/threonine-protein kinase Chk1 (Homo sapiens) (UniProt O14757); test: Inhibition of CHK1 (unknown origin) at 1 uM by kinase Glo assay
[5] = target: Mitogen-activated protein kinase 14 (Homo sapiens) (UniProt Q16539); test: Inhibition of MAPK14 (unknown origin) at 1 uM
cells = settings: Homo sapiens, RS4-11, 72 h
Description: Cytotoxicity against human RS4:11 cells harboring wild type FLT3 after 72 hrs by MTS assay

U-937 = test: cells; settings: Homo sapiens, U-937, 72 h
Description: Cytotoxicity against human FLT3 negative U937 cells after 72 hrs by MTS assay

K562 = test: cells; settings: Homo sapiens, K562, 72 h
Description: Cytotoxicity against human FLT3-negative K562 cells harboring wild type BCR/ABL after 72 hrs by MTS assay

[6] = target: Tyrosine-protein kinase JAK3 (Homo sapiens) (UniProt P52333); test: Inhibition of JAK3 (unknown origin) at 1 uM
[7] = target: Receptor-type tyrosine-protein kinase FLT3 (Homo sapiens) (UniProt P36888); test: Inhibition of FLT3 (unknown origin) at 1 uM
MV4-11 = test: Cytotoxicity against human MV4-11 cells harboring FLT3/ITD mutant after 72 hrs by MTS assay; format: functional; settings: MV4-11, 72 h
Mus musculus = test: Toxicity in mouse assessed as loss of body weight at 25 mg/kg, iv for 5 days; format: organism-based; set-up: dose 25 mg/kg, route intravenous; settings: in vivo, 120 h
[8] = target: Non-receptor tyrosine-protein kinase TYK2 (Homo sapiens) (UniProt P29597); test: Inhibition of TYK2 (unknown origin) at 1 uM
[9] = target: High affinity nerve growth factor receptor (Homo sapiens) (UniProt P04629); test: Inhibition of NTRK1 (unknown origin) at 1 uM
[10] = target: Angiopoietin-1 receptor (Homo sapiens) (UniProt Q02763); test: Inhibition of TEK (unknown origin) at 1 uM
[11] = target: Receptor tyrosine-protein kinase erbB-2 (Homo sapiens) (UniProt P04626); test: Inhibition of ERBB2 (unknown origin) at 1 uM
MOLM-13 [12] = test: Antitumor activity against human MOLM13 cells xenografted in nu/nu mouse at 3 mg/kg, iv qd administered on days 1 to 5 and days 8 to 12; format: functional, organism-based; set-up: dose 3 mg/kg
[13] = target: Inhibitor of nuclear factor kappa-B kinase subunit epsilon (Homo sapiens) (UniProt Q14164); test: Inhibition of IKBKE (unknown origin) at 1 uM
[14] = target: AMP-activated protein kinase (AMPK) alpha-1/beta-1/gamma-1 (Homo sapiens) (UniProt P54619+Q9Y478+Q13131); test: Inhibition of Ampk A1/B1/G1 (unknown origin) at 1 uM; format: protein-complex assay
[15] = target: Hepatocyte growth factor receptor (Homo sapiens) (UniProt P08581); test: Inhibition of MET (unknown origin) at 1 uM by kinase Glo assay
[16] = target: T3, Receptor-type tyrosine-protein kinase FLT3 (Homo sapiens, UniProt P36888, ITD); test: Inhibition of FLT3/ITD mutant-mediated stat5 phosphorylation in human MV4-11 cells after 1 hr by Western blot analysis; format: cell-based
MOLM-13 [17] = test: Antitumor activity against human MOLM13 cells xenografted in nu/nu mouse at 10 mg/kg, iv qd administered on days 1 to 5 and day 8 to 12 measured after 48 days; format: functional; settings: read-out: TGI
[18] = target: Mast/stem cell growth factor receptor Kit (Homo sapiens) (UniProt P10721); test: Inhibition of KIT (unknown origin) at 1 uM
[19] = target: T2, Vascular endothelial growth factor receptor 2; test: biochemical; format: cell-based, Sf9
Description: Inhibition of recombinant GST tagged VEGFR2 (789 to 1356) (unknown origin) transfected in insect sf9 cells after 120 mins by wallac counting analysis

[20] = target: Macrophage colony-stimulating factor 1 receptor (Homo sapiens) (UniProt P07333); test: Inhibition of CSF1R (unknown origin) at 1 uM
[21] = target: T3, Receptor-type tyrosine-protein kinase FLT3; test: Inhibition of FLT3/ITD mutant phosphorylation in human MV4-11 cells after 1 hr by Western blot analysis; format: cell-based
[22] = target: Tyrosine-protein kinase JAK2 (Homo sapiens) (UniProt O60674); test: Inhibition of JAK2 (unknown origin) at 1 uM
[23] = target: Fibroblast growth factor receptor 1 (Homo sapiens) (UniProt P11362); test: Inhibition of FGFR1 (unknown origin) at 1 uM
[24] = target: Serine/threonine-protein kinase Chk2 (Homo sapiens) (UniProt O96017); test: Inhibition of CHK2 (unknown origin) at 1 uM by kinase Glo assay
[25] = target: Ribosomal protein S6 kinase beta-1 (Homo sapiens) (UniProt P23443); test: Inhibition of RPS6KB1 (unknown origin) at 1 uM

Chain of Hepatocyte growth factor receptor (Homo sapiens) (P08581 whole entry): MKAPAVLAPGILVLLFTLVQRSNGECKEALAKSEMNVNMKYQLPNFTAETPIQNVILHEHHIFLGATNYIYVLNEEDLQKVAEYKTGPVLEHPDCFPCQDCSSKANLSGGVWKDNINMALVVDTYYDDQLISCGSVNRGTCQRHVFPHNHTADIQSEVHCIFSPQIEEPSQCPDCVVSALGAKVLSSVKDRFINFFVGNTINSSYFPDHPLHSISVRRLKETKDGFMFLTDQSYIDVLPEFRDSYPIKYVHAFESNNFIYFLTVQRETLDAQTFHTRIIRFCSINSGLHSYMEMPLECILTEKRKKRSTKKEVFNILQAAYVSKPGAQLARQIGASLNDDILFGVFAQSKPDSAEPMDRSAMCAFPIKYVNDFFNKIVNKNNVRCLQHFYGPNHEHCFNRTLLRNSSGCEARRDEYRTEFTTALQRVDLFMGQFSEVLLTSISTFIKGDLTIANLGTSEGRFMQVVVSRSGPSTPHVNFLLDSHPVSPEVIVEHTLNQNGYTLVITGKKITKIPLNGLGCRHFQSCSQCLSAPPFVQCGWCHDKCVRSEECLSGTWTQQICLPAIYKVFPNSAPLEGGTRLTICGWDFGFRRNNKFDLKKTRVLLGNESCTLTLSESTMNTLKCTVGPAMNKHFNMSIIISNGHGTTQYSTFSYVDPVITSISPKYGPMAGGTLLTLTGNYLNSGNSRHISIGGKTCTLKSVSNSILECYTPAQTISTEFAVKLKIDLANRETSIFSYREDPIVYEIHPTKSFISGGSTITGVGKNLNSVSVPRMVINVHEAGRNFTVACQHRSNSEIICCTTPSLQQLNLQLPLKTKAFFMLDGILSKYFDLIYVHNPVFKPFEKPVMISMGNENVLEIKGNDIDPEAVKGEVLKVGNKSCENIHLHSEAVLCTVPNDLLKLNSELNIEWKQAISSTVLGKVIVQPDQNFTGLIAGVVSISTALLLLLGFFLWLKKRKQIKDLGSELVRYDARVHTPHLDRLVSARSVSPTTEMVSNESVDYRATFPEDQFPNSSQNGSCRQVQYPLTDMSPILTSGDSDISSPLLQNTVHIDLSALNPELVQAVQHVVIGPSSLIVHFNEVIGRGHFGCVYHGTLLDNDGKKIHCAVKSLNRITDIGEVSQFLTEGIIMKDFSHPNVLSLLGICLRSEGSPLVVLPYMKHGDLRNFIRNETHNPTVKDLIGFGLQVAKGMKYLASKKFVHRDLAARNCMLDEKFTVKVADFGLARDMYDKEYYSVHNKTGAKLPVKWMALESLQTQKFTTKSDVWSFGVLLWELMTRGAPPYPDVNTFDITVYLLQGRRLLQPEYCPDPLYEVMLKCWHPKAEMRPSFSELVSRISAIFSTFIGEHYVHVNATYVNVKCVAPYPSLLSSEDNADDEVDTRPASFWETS
T2 sequence (P35968 whole entry): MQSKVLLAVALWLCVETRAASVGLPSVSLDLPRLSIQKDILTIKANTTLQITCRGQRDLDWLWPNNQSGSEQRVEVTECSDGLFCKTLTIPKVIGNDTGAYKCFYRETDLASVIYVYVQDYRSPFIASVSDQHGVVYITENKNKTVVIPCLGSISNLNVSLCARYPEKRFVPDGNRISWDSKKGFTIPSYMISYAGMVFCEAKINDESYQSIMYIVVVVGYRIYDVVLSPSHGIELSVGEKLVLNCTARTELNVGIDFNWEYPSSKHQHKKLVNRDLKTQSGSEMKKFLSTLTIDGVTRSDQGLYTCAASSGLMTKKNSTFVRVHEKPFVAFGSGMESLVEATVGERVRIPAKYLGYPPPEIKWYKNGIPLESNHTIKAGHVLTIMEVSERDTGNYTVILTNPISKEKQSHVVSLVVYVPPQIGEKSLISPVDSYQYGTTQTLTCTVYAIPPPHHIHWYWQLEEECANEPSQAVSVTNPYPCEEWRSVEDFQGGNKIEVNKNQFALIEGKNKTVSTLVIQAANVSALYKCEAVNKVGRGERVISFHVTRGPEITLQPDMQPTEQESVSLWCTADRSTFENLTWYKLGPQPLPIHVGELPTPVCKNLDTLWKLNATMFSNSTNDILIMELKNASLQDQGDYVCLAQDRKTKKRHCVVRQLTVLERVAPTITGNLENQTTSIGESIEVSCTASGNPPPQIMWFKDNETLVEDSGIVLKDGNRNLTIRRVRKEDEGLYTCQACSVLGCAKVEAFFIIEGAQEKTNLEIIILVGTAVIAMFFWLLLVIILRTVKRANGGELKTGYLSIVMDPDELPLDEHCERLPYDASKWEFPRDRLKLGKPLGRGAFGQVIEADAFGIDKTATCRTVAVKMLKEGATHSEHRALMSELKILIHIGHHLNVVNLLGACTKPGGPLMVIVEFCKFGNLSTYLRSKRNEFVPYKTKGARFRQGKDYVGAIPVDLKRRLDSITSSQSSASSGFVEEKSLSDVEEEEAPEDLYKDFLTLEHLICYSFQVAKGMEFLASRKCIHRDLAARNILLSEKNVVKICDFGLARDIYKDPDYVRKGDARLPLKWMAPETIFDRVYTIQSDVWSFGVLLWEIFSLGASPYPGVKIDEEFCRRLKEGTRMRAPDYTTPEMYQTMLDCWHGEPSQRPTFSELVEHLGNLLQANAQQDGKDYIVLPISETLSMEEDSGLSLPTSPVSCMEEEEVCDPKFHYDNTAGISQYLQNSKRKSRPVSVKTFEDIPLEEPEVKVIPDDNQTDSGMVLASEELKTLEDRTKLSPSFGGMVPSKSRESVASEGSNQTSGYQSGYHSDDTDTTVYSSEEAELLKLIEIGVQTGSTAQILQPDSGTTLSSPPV
Chain of Macrophage colony-stimulating factor 1 receptor (Homo sapiens) (P07333 whole entry): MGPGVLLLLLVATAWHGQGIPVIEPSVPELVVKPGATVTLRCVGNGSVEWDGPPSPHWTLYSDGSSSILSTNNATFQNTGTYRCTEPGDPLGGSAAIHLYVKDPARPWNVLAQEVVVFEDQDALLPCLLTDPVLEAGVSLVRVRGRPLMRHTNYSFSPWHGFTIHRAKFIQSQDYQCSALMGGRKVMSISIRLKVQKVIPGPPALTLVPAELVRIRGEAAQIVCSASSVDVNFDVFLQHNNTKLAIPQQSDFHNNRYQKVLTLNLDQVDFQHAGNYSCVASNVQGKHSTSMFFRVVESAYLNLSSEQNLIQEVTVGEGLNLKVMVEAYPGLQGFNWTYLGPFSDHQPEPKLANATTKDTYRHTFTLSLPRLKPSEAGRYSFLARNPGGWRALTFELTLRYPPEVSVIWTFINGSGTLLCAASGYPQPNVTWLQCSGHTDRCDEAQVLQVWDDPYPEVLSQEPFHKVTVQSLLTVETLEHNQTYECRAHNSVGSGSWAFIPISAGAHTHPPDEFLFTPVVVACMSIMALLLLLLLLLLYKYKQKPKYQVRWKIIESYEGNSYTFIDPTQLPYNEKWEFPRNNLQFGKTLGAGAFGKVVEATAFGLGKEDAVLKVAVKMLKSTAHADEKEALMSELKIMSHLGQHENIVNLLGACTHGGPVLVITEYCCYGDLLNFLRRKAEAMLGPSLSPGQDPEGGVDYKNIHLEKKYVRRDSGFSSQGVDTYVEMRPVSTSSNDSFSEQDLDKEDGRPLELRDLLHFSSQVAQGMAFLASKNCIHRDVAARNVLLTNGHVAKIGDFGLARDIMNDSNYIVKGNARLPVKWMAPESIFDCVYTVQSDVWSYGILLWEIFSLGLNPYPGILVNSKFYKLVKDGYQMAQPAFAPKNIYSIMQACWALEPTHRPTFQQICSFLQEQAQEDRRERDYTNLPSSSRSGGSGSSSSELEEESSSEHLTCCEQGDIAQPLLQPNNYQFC
Chain of Angiopoietin-1 receptor (Homo sapiens) (Q02763 whole entry): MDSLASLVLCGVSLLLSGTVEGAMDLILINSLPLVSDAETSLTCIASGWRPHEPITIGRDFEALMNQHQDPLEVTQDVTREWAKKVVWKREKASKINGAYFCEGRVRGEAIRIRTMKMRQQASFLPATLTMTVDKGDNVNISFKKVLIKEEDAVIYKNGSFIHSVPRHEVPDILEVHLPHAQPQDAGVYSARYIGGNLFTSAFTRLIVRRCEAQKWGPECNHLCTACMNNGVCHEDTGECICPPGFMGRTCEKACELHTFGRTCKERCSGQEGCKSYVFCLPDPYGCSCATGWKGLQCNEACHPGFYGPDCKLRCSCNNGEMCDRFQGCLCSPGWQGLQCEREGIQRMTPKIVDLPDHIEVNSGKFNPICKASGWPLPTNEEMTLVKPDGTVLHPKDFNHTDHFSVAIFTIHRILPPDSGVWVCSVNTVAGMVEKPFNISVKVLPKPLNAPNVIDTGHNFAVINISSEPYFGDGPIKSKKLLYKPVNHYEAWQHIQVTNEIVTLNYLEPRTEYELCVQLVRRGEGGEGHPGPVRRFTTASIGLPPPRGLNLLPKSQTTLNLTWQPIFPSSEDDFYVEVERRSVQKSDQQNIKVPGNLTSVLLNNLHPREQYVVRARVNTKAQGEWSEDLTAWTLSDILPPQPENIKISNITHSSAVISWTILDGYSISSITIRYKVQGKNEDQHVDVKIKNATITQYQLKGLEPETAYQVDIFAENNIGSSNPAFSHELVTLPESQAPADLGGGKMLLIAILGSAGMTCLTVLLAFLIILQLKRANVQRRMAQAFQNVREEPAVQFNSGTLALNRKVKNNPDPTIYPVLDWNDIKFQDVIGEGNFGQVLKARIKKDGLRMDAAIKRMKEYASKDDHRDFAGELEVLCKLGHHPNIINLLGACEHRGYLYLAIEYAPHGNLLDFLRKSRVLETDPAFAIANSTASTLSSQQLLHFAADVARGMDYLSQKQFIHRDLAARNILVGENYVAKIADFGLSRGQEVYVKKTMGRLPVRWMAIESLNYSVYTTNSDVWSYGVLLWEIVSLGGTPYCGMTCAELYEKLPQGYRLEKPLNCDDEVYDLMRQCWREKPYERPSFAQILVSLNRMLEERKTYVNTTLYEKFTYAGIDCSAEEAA

With `CC(C)(C)c1cc(NC(=O)NCc2ccc(-c3cc(NC(=O)c4ccc(OCCN5CCOCC5)cc4)[nH]n3)cc2)no1` the inhibition [1] was 2%, the IC50 [2] was 18 nM and the inhibition [3] was 99%. For the same compound, the inhibition [4] was 2%, the inhibition [5] was 3% and the GI50 (cells) was 900 nM. The GI50 (U-937) was > 20000 nM, the GI50 (K562) was 11800 nM and the inhibition [6] was 27%. The inhibition [7] was 100%, the GI50 (MV4-11) was 2 nM and the Activity (Mus musculus) was “Non-toxic”. For the same compound, the inhibition [8] was 86%, the inhibition [9] was 98% and the inhibition [10] was 83%. For the same compound, the inhibition [11] was -1%, the inhibition (MOLM-13 [12]) was “Active” and the inhibition [13] was -5%. For the same compound, the inhibition [14] was 94%, the inhibition [15] was 40% and the IC50 [16] was 1 nM. It also gave an inhibition in vivo at 10 mg/kg (MOLM-13 [17]) of 70%, an inhibition [18] of 68% and an IC50 [19] of 28 nM. The inhibition [20] was 95%, the IC50 [21] was 1 nM and the inhibition [22] was 79%. The inhibition [23] was 48%, the inhibition [24] was 10% and the inhibition [25] was 41%.
